In ChEMBL document CHEMBL2424645, “Phosphorylated ganciclovir derivatives: design, synthesis and in vitro and in vivo immunomodulatory activity” (Med Chem Res, 2013):
Calls of active or inactive are those of the source. The calls are words filed in the database; no cut-off is given here.

Columns and labels:
[1] = Toxicity in Wistar albino rat; assay type: organism-based; settings: in vivo
Rattus norvegicus [2] = test: Immunomodulatory activity in high fat diet-induced obese Wistar albino rat impaired immune model assessed as CRP level at 8 mg/kg, po after 8 weeks by ELISA relative to high fat-diet fed rat with immune dysfunction; assay type: functional
Neutrophil [3] = test: Immunomodulatory activity in human neutrophils assessed as increase in intracellular killing activity at 40 ug/mL after 20 mins by NBT dye reduction assay relative to control; assay type: functional; design: scale not given: the % may be the effect or the level left
Neutrophil [4] = test: Immunomodulatory activity in human neutrophils assessed as increase in intracellular killing activity at 100 ug/mL after 20 mins by NBT dye reduction assay relative to control; assay type: functional; design: scale not given: the % may be the effect or the level left
Neutrophil [5] = test: Immunomodulatory activity in human neutrophils assessed as increase in intracellular killing activity at 20 ug/mL after 20 mins by NBT dye reduction assay relative to control; assay type: functional; design: scale not given: the % may be the effect or the level left
Neutrophil [6] = test: Immunomodulatory activity in human neutrophils assessed as increase in intracellular killing activity at 10 ug/mL after 20 mins by NBT dye reduction assay relative to control; assay type: functional; design: scale not given: the % may be the effect or the level left
Neutrophil [7] = test: Immunomodulatory activity in human neutrophils assessed as increase in intracellular killing activity at 1000 ug/mL after 20 mins by NBT dye reduction assay relative to control; assay type: functional; design: scale not given: the % may be the effect or the level left
Rattus norvegicus [8] = test: Immunomodulatory activity in high fat diet-induced obese Wistar albino rat impaired immune model assessed as IL-6 level at 8 mg/kg, po after 8 weeks by ELISA relative to vehicle-treated control; assay type: functional
Rattus norvegicus [9] = test: Immunomodulatory activity in high fat diet-induced obese Wistar albino rat impaired immune model assessed as IL-1 level at 8 mg/kg, po after 8 weeks by ELISA relative to relative to high fat-diet fed rat with immune dysfunction; assay type: functional
Rattus norvegicus [10] = test: Immunomodulatory activity in high fat diet-induced obese Wistar albino rat impaired immune model assessed as TNF-alpha level at 8 mg/kg, po after 8 weeks by ELISA relative to vehicle-treated control; assay type: functional
Rattus norvegicus [11] = test: Immunomodulatory activity in high fat diet-induced obese Wistar albino rat impaired immune model assessed as decrease in total neutrophils count at 8 mg/kg, po after 8 weeks by hematology analyser relative to control; assay type: functional, organism-based; design: dose 8 mg/kg
Rattus norvegicus [12] = test: Immunomodulatory activity in high fat diet-induced obese Wistar albino rat impaired immune model assessed as decrease in total monocytes count at 8 mg/kg, po after 8 weeks by hematology analyser relative to control; assay type: functional, organism-based; design: dose 8 mg/kg
Rattus norvegicus [13] = test: Immunomodulatory activity in high fat diet-induced obese Wistar albino rat impaired immune model assessed as decrease in total lymphocytes count at 8 mg/kg, po after 8 weeks by hematology analyser relative to control; assay type: functional, organism-based; design: dose 8 mg/kg

## CCOC(=O)C(NCP1(=O)OCC(OCn2cnc3c(=O)[nH]c(N)nc32)CO1)c1ccccc1 (stereo not given)
[1]
  LD50: 80 mg/kg
Rattus norvegicus [2]
  Activity: inactive
Neutrophil [3]
  Activity: 46.63%
Neutrophil [4]
  Activity: 52.91%
Neutrophil [5]
  Activity: 43.11%
Neutrophil [6]
  Activity: 40.62%
Neutrophil [7]
  Activity: 60.32%

## CCOC(=O)C(NCP1(=O)OCC(OCn2cnc3c(=O)[nH]c(N)nc32)CO1)c1ccc(O)cc1 (stereo not given)
[1]
  LD50: 80 mg/kg
Rattus norvegicus [2]
  Activity: inactive
Neutrophil [3]
  Activity: 49.49%
Neutrophil [4]
  Activity: 52.31%
Neutrophil [5]
  Activity: 42.46%
Neutrophil [6]
  Activity: 39.58%
Neutrophil [7]
  Activity: 62.25%

## CCOC(=O)C(CC(C)C)NCP1(=O)OCC(OCn2cnc3c(=O)[nH]c(N)nc32)CO1 (stereo not given)
[1]
  LD50: 80 mg/kg
Rattus norvegicus [2]
  Activity: inactive
Neutrophil [3]
  Activity: 49.31%
Neutrophil [4]
  Activity: 51.44%
Neutrophil [5]
  Activity: 40.92%
Neutrophil [6]
  Activity: 39.17%
Neutrophil [7]
  Activity: 58.03%

## Nc1nc2c(ncn2COC2COP(=O)(COCCO)OC2)c(=O)[nH]1 (stereo not given)
[1]
  LD50: 80 mg/kg
Rattus norvegicus [2]
  Activity: inactive
Rattus norvegicus [8]
  Activity: inactive
Neutrophil [3]
  Activity: 49.85%
Rattus norvegicus [9]
  Activity: inactive
Neutrophil [4]
  Activity: 51.23%
Neutrophil [5]
  Activity: 46.44%
Neutrophil [6]
  Activity: 34.31%
Neutrophil [7]
  Activity: 53.02%
Rattus norvegicus [10]
  Activity: inactive

## CCOC(=O)C(N)CSCP1(=O)OCC(OCn2cnc3c(=O)[nH]c(N)nc32)CO1 (stereo not given)
Rattus norvegicus [11]
  Activity: Active
[1]
  LD50: 80 mg/kg
Rattus norvegicus [2]
  Activity: 21.9 ng/mL
Rattus norvegicus [8]
  Activity: 5.2 pg/mL
Neutrophil [3]
  Activity: 58.04%
Rattus norvegicus [9]
  Activity: 122.9 pg/mL
Rattus norvegicus [12]
  Activity: Active
Rattus norvegicus [13]
  Activity: Active
Neutrophil [4]
  Activity: 60.16%
Neutrophil [5]
  Activity: 56.34%
Neutrophil [6]
  Activity: 45.03%
Neutrophil [7]
  Activity: 66.82%
Rattus norvegicus [10]
  Activity: 36.5 pg/mL

## COC(=O)C(NCP1(=O)OCC(OCn2cnc3c(=O)[nH]c(N)nc32)CO1)C(C)C (stereo not given)
Rattus norvegicus [11]
  Activity: Active
[1]
  LD50: 80 mg/kg
Rattus norvegicus [2]
  Activity: 22.3 ng/mL
Rattus norvegicus [8]
  Activity: 5.4 pg/mL
Neutrophil [3]
  Activity: 60.83%
Rattus norvegicus [9]
  Activity: 123.6 pg/mL
Rattus norvegicus [12]
  Activity: Active
Rattus norvegicus [13]
  Activity: Active
Neutrophil [4]
  Activity: 62.45%
Neutrophil [5]
  Activity: 55.09%
Neutrophil [6]
  Activity: 41.18%
Neutrophil [7]
  Activity: 65.14%
Rattus norvegicus [10]
  Activity: 37.1 pg/mL

## CCOC(=O)C(CO)NCP1(=O)OCC(OCn2cnc3c(=O)[nH]c(N)nc32)CO1 (stereo not given)
[1]
  LD50: 80 mg/kg
Rattus norvegicus [2]
  Activity: inactive
Neutrophil [3]
  Activity: 48.11%
Neutrophil [4]
  Activity: 53.09%
Neutrophil [5]
  Activity: 39.92%
Neutrophil [6]
  Activity: 39.8%
Neutrophil [7]
  Activity: 56.02%

## NCCSCP1(=O)OCC(OCn2cnc3c(=O)[nH]c(N)nc32)CO1 (stereo not given)
[1]
  LD50: 80 mg/kg
Rattus norvegicus [2]
  Activity: inactive
Rattus norvegicus [8]
  Activity: inactive
Neutrophil [3]
  Activity: 49.32%
Rattus norvegicus [9]
  Activity: inactive
Neutrophil [4]
  Activity: 50.36%
Neutrophil [5]
  Activity: 45.64%
Neutrophil [6]
  Activity: 33.77%
Neutrophil [7]
  Activity: 57.91%
Rattus norvegicus [10]
  Activity: inactive

## Nc1nc2c(ncn2COC2COP(=O)(CNCCO)OC2)c(=O)[nH]1 (stereo not given)
[1]
  LD50: 80 mg/kg
Rattus norvegicus [2]
  Activity: inactive
Rattus norvegicus [8]
  Activity: inactive
Neutrophil [3]
  Activity: 48.54%
Rattus norvegicus [9]
  Activity: inactive
Neutrophil [4]
  Activity: 50.57%
Neutrophil [5]
  Activity: 45.98%
Neutrophil [6]
  Activity: 33.38%
Neutrophil [7]
  Activity: 55.25%
Rattus norvegicus [10]
  Activity: inactive

## Nc1nc2c(ncn2COC(CO)CO)c(=O)[nH]1 [GANCICLOVIR]
[1]
  LD50: 80 mg/kg
Neutrophil [3]
  Activity: 55.89%
Neutrophil [4]
  Activity: 58.23%
Neutrophil [5]
  Activity: 53.21%
Neutrophil [6]
  Activity: 39.43%
Neutrophil [7]
  Activity: 60.11%

## Nc1nc2c(ncn2COC2COP(=O)(CSCCO)OC2)c(=O)[nH]1 (stereo not given)
[1]
  LD50: 80 mg/kg
Rattus norvegicus [2]
  Activity: inactive
Rattus norvegicus [8]
  Activity: inactive
Neutrophil [3]
  Activity: 47.93%
Rattus norvegicus [9]
  Activity: inactive
Neutrophil [4]
  Activity: 52.15%
Neutrophil [5]
  Activity: 43.73%
Neutrophil [6]
  Activity: 32.25%
Neutrophil [7]
  Activity: 55.35%
Rattus norvegicus [10]
  Activity: inactive

## CCC(CO)NCP1(=O)OCC(OCn2cnc3c(=O)[nH]c(N)nc32)CO1 (stereo not given)
[1]
  LD50: 80 mg/kg
Rattus norvegicus [2]
  Activity: inactive
Rattus norvegicus [8]
  Activity: inactive
Neutrophil [3]
  Activity: 46.76%
Rattus norvegicus [9]
  Activity: inactive
Neutrophil [4]
  Activity: 53.98%
Neutrophil [5]
  Activity: 43.15%
Neutrophil [6]
  Activity: 31.37%
Neutrophil [7]
  Activity: 54.32%
Rattus norvegicus [10]
  Activity: inactive

## NCCNCP1(=O)OCC(OCn2cnc3c(=O)[nH]c(N)nc32)CO1 (stereo not given)
[1]
  LD50: 80 mg/kg
Rattus norvegicus [2]
  Activity: inactive
Rattus norvegicus [8]
  Activity: inactive
Neutrophil [3]
  Activity: 45.35%
Rattus norvegicus [9]
  Activity: inactive
Neutrophil [4]
  Activity: 47.3%
Neutrophil [5]
  Activity: 42.51%
Neutrophil [6]
  Activity: 40.12%
Neutrophil [7]
  Activity: 50.46%
Rattus norvegicus [10]
  Activity: inactive
